Laboratory results taken from paper PMC7337102 (ACS infectious diseases, 2019).

Columns and labels:
Assay type in all cases: biochemical
Eis_F84A = Eis_F84A (Mycobacterium tuberculosis, UniProt P9WFK7, F84A)
Eis_M65A = Eis_M65A (Mycobacterium tuberculosis, UniProt P9WFK7, M65A)
Eis_L63A = Eis_L63A (Mycobacterium tuberculosis, UniProt P9WFK7, L63A)
Eis_W36A = Eis_W36A (Mycobacterium tuberculosis, UniProt P9WFK7, W36A)
Eis_W36R = Eis_W36R (Mycobacterium tuberculosis, UniProt P9WFK7, W36R)
Eis_S83G = Eis_S83G (Mycobacterium tuberculosis, UniProt P9WFK7, S83G)
Eis_R37G = Eis_R37G (Mycobacterium tuberculosis, UniProt P9WFK7, R37G)
Eis_D26A = Eis_D26A (Mycobacterium tuberculosis, UniProt P9WFK7, D26A)
Eis_R37A = Eis_R37A (Mycobacterium tuberculosis, UniProt P9WFK7, R37A)

NC[C@H]1O[C@H](O[C@H]2[C@H](O)[C@@H](O[C@H]3O[C@H](CO)[C@@H](O)[C@H](N)[C@H]3O)[C@H](N)C[C@@H]2N)[C@H](O)[C@@H](O)[C@@H]1O [KAN, kanamycin]
Km (Eis_F84A): 569 ± 94 µM | kcat (Eis_F84A): 8.5 ± 0.7 min⁻¹ | Km (Eis_M65A): 247 ± 19 µM | increase in the catalytic efficiency from that of the wild-type enzyme (Eis_M65A): 4.6 fold | kcat (Eis_M65A): 29.7 ± 0.9 min⁻¹ | maximum turnover rate, fold higher (Eis_M65A): 2 fold | Km (Eis_L63A): 484 ± 93 µM | kcat (Eis_L63A): 19.4 ± 1.5 min⁻¹ | Km (Eis_W36A): 556 ± 148 µM | kcat (Eis_W36A): 8.3 ± 1.0 min⁻¹ | Km (Eis_W36R): 352 ± 77 µM | decrease in the maximum turnover rate (Eis_W36R): 3.3 fold | increase of the binding affinity to KAN (Eis_W36R): 1.6 fold | kcat (Eis_W36R): 4.4 ± 0.4 min⁻¹ | Km (Eis_S83G): 432 ± 48 µM | increase in the catalytic efficiency of the enzyme (Eis_S83G): 2 fold | kcat (Eis_S83G): 21.9 ± 0.8 min⁻¹ | Km (Eis_R37G): 696 ± 44 µM | kcat (Eis_R37G): 12.9 ± 0.1 min⁻¹ | Km (Eis_D26A): 1.28 ± 0.36 mM | increase in the Km value of KAN from that for the wild-type enzyme (Eis_D26A): 2.3 fold | kcat (Eis_D26A): 14.1 ± 2.5 min⁻¹ | Km (Eis_R37A): 971 ± 166 µM | kcat (Eis_R37A): 9.5 ± 0.3 min⁻¹
